In publication PMC3466212, “Novel AChE Inhibitors for Sustainable Insecticide Resistance Management” (PLoS ONE, 2012):

Columns and labels:
G119S AChE1 [1] = target: T1, G119S AChE1 (Culex pipiens, UniProt Q86GC8, G247S); experiment: biochemical; assay type: biochemical; details: recombinant OP-insensitive G119S C. pipiens AChE1; 15 min incubation; acetylthiocholine; read-out: IC50 G119S
T1 construct: made in house; host or cells: Drosophila S2 cells

F290V AChE1 = target: T2, F290V AChE1 (Culex pipiens, UniProt Q86GC8, F416V); assay type: biochemical; details: F290V OP-insensitive AChE1
T2 construct: made in house; host or cells: Drosophila S2 cells
Procedure: (§1) Production of C. pipiens WT and mutated AChE1s in Drosophila S2 cells was already described. The chemical library (ChemBridge, 3,000 compounds) screening was performed in duplicate on G119S recombinant AChE1. Chemicals were made soluble in ethanol or dimethylsulphoxide (DMSO), and then diluted at 300 µM in ethanol for storage. Compounds (30 µM final concentration) were incubated for 15 min at room temperature with 100 µl of G119S recombinant AChE1 then 100 µl of substrate (acetylthiocholine, 1.6 mM, Sigma-Aldrich) was added and the residual activity was quantified by measuring the optical density at 412 nm, as described by Ellman et al.. PTF analogs were analyzed in dose-response experiments (10-fold serial dilutions from 3 mM to 30 nM), using recombinant WT and G119S AChE1 or mosquito head extracts (heads cut from frozen mosquitoes, homogenized in 400 µl PB containing 1% Triton X-100 and cleared by centrifugation at 9,000×g for 3 min). Depending on compound availability, two to five replicates were performed with distinct batches of enzyme. […] IC50 was estimated by nonlinear least square regression. IC50 was also measured on AChE1 from susceptible and resistant mosquito larvae extracts.
(§2) a numbers refer to Table S1
(§3) b IC50 values were determined from regression analysis of log-concentrations versus

F331W AChE1 = target: T3, F331W AChE1 (Culex pipiens, UniProt Q86GC8, F457W); assay type: biochemical; details: F331W OP-insensitive AChE1
T3 construct: made in house; host or cells: Drosophila S2 cells
Procedure: as §1, §2, §3

[2] = test system: C. pipiens Slab strain larvae; experiment: Larval bioassay, Slab strain (OP-susceptible); details: for LD50 Slab: C. pipiens OP-susceptible ace-1 S/S larvae, four to five replicates; for Mortality at 300 µM, Slab: fourth-instar larvae, 24 hours exposure
[3] = test system: C. pipiens SR strain larvae; experiment: Larval bioassay, SR strain (OP-resistant); details: for LD50 SR: C. pipiens OP-resistant ace-1 R/R larvae; for Mortality at 300 µM, SR: fourth-instar larvae, 24 hours exposure
[4] = test system: C. pipiens Ducos strain larvae; experiment: Larval bioassay, Ducos strain (ace-1 duplication); assay type: in vivo, Culex pipiens; details: C. pipiens OP-resistant ace-1 D (duplication) larvae
Excerpt: (§4) Three C. pipiens strains were used: the susceptible reference Slab strain, homozygous for ace-1 ^S [39], the resistant reference SR strain, carrying the genetical background of Slab but homozygous for the G119S mutation, allele ace-1 ^R [21] and the Ducos strain, carrying the genetical background of Slab but homozygous for an ace-1 duplication, with one ace-1^S and ace-1^R copy in tandem. Culex pipiens heterozygous larvae (Slab×SR) were obtained by crossing Slab males and SR females. Two A. gambiae reference strains (S molecular form) were used: the susceptible strain Kisumu, homozygous for ace-1 ^S, collected in Kenya in 1953 and maintained since then under laboratory conditions and the resistant Acerkis strain, carrying the genetical background of Kisumu but homozygous for an ace-1^R allele from a population collected in Bobo-Dioulasso, Burkina Faso [41].
(§5) Insecticidal activity was determined by performing bioassays on fourth-instar larvae as described in [42]. Each compound was dissolved in ethanol. Propoxur (CX) and chlorpyrifos (OP) were used as references. For each compound, we first tested mortality after a 24-hour exposure at 300 µM. […] Mortality data were analyzed by the log-probit program. This program takes into account natural mortality and provides lethal doses (LD) and slopes for each mortality line; it also computes resistance ratios (RR) for each LD, with 95% confidence intervals.

[5] = test system: C. pipiens F1 (SR×Slab) heterozygous larvae; experiment: Larval bioassay, heterozygous F1 (SR×Slab); assay type: in vivo, Culex pipiens; details: C. pipiens heterozygous ace-1 R/ace-1 S larvae
Excerpt: as §4, §5

[6] = test system: A. gambiae Kisumu strain larvae; experiment: Larval bioassay, Kisumu strain (OP-susceptible); assay type: in vivo, Anopheles gambiae; details: A. gambiae OP-susceptible ace-1 S/S larvae
Excerpt: as §4, §5

[7] = test system: A. gambiae Acerkis strain larvae; experiment: Larval bioassay, Acerkis strain (OP-resistant); assay type: in vivo, Anopheles gambiae; details: A. gambiae OP-resistant ace-1 R/R larvae
Excerpt: as §4, §5

WT AChE1 [8] = target: T4, WT AChE1 (Culex pipiens, UniProt Q86GC8); details: read-out: Kic WT; dissociation constant of enzyme-inhibitor complex; five independent replicates
Procedure: (§6) To identify inhibitors of G119S AChE1, we screened a 3,000-compound chemical library using an assay adapted to a microplate format, [26]. […] For simplification, these compounds will be termed from now as PTF (PyrimidineTrione Furan-substituted) and were classified depending on the substituted positions (Table S1).
(§7) WT and G119S recombinant AChE1s were incubated with 0.25 mM, 0.5 mM or 1 mM inhibitor. Residual activity of G119S (A and C) and WT (B and D) AChE1 was measured in the presence of various concentrations of PTF-20 and substrates. Enzymatic activity was analyzed using the graphical method developed by Dixon, representing reciprocal rates (1/v) (A and B) or reciprocal rates multiplied by substrate concentrations ([S]/v) (C and D) as a function of inhibitor concentration. (PDF) Click here for additional data file.
(§8) Table S3. Dissociation constants (Kic) of enzyme-inhibitor complexes.
as §2
(§9) b data were measured from five independent replicates.
(§10) c competitive inhibitor reference

G119S AChE1 [9] = target: T1, G119S AChE1; assay type: biochemical; details: dissociation constant of enzyme-inhibitor complex; five independent replicates; read-out: Kic G119S
Procedure: as §6
Reversibility was tested using a rapid dilution procedure. Residual activity of WT (white bars) and G119S (grey bars) AChE1 were measured after 15 min incubation in presence of inhibitors (striped bars) and are expressed as percentages of control activity. […] Assays were then diluted ten times and residual activity was measured (open bars). Means and standard errors for three independent experiments are shown. (PDF) Click here for additional data file.
as §7, §8, §2, §9, §10

WT AChE1 [10] = target: T4, WT AChE1; experiment: AChE assay (Ellman), dose-response on recombinant WT AChE1; assay type: biochemical; set-up: made in house; host or cells: Drosophila S2 cells; details: recombinant wild-type C. pipiens AChE1; 15 min incubation; acetylthiocholine; read-out: IC50 WT
Summary of the method: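 Enzyme expressed in Drosophila S2 cells; compounds tested in 10-fold serial dilutions from 3 mM to 30 nM. Ellman read-out at 412 nm with acetylthiocholine (1.6 mM as added, after 15 min room-temperature preincubation in the screening format). IC50 by nonlinear least-squares regression; 2–5 replicates with distinct enzyme batches.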

SMILES	IC50 (G119S AChE1 [1]) [µM]	IC50 (F290V AChE1) [µM]	IC50 (F331W AChE1) [µM]	LD50 Slab [2] [µM]	Mortality at 300 µM, Slab [2] [%]	LD50 SR [3] [µM]	Mortality at 300 µM, SR [3] [%]	LD50 Ducos [4] [µM]	LD50 F1 (SR×Slab) [5] [µM]	LD50 Kisumu [6] [µM]	LD50 Acerkis [7] [µM]	Ki (WT AChE1 [8]) [µM]	Ki (G119S AChE1 [9]) [µM]	IC50 (WT AChE1 [10]) [µM]
COc1ccc(N2C(=O)NC(=O)C(=Cc3ccc(C)o3)C2=O)cc1 [PTF-10]	81.4	85.9	88.2	300.0	14	206.0	87	232.8	207.1	388.3	50.6	88.2 ± 4.2	64.5 ± 1.8	592
Cc1cccc(N2C(=O)C(=Cc3ccc(C)o3)C(=O)NC2=S)c1 [PTF-25]	28.6	39.3	31.9	160.8	32	70.1	68	130.8	60.0	46.1	12.6	131 ± 3.1	24.9 ± 0.6	442
COc1cccc(N2C(=O)C(=Cc3ccc(C)o3)C(=O)NC2=S)c1 [PTF-29]	33.5	37.4	11.2	946.0	27	398.8	63	409.0	105.1	164.4	67.7	17.1 ± 6.8	8.9 ± 2.7	118
